Data published in US20120065267A1, “COMPOSITIONS INCLUDING 3,5-L-T2 AND METHODS OF USE THEREOF” (priority 2010, published 2012).
“And” between values parts separate entries of the source, which are not always exact repeats. Equal values may be shown once.

Test system: C57, LDLr+/− and LDLr0 mice
Assay: Serum triglycerides in mice on Western Diet given daily oral T2
Assay type: in vivo
Set-up: Triglycerides / Triglycerides (Ave): unit not given here
Method: This corresponds to a dosage for an 80 kg human of about 20-200 mg/day, or a low dose of about 0.2-0.3 mg/kg of body weight to a high dose of about 2-3 mg/kg of body weight. One will appreciate, however, that some subjects (e.g., subjects having very low LDL receptor function) may receive higher doses, depending on need. likewise, some subjects may receive lower doses, which again depends on need. Mice in the study were fed a standard lab chow referred to as the “Western Diet.” The overall level of fat and the saturated nature of the fat are representative diets typical in the industrialized west that are linked to risk of cardiovascular disease in humans. The formula is used primarily with genetically manipulated rodent models that are susceptible to high cholesterol and cardiovascular disease. The diet may also be useful in diet-induced obesity, diabetes, and metabolic syndrome models. High cholesterol, obesity, and diabetes are each associated increased risk for cardiovascular disease. The composition of the Western Diet is shown below. C57 is a wild-type strain, LDLr+/− are a strain carrying one functional copy of the LDLr gene, and the LDLr0 animals are total LDLr knockouts. The LDLr gene encodes for the LDL receptor protein, which is responsible for scavenging LDL with bound cholesterol from the blood and transporting it into cells. Both heterozygous and homozygous LDLr knockout animals develop very high serum cholesterol levels and are considered to be a good model for heterozygous and homozygous familial hypercholesterolemia in humans. […] LDLr knockout animals have zero LDL receptor function.

N[C@@H](Cc1cc(I)c(Oc2ccc(O)cc2)c(I)c1)C(=O)O [T2, (2S)-2-amino-3-[4-(4-hydroxyphenoxy)-3,5-diiodophenyl]propanoic acid]
Triglycerides (Ave) (C57 mice, 1 Week High Dose, T2 2.5 mg/kg daily oral, group average): 55.8 | Triglycerides (C57 mice, 1 Week High Dose, T2 2.5 mg/kg daily oral, individual animal, 2.5 mg/kg): 42.161 and 68.02 and 45.486 and 50.657 and 72.822 | Triglycerides (Ave) (C57 mice, 1 Week Low Dose, T2 0.25 mg/kg daily oral, group average): 29.5 | Triglycerides (C57 mice, 1 Week Low Dose, T2 0.25 mg/kg daily oral, individual animal, 0.25 mg/kg): 24.835 and 29.673 and 13.299 and 36.371 and 43.441 | Triglycerides (Ave) (LDLr0 mice (first group), 1 Week High Dose, T2 2.5 mg/kg daily oral, group average): 192.1 | Triglycerides (LDLr0 mice (first group), 1 Week High Dose, T2 2.5 mg/kg daily oral, individual animal, 2.5 mg/kg): 173.672 and 210.614 | Triglycerides (Ave) (LDLr0 mice (first group), 1 Week Low Dose, T2 0.25 mg/kg daily oral, group average): 183.0 | Triglycerides (LDLr0 mice (first group), 1 Week Low Dose, T2 0.25 mg/kg daily oral, individual animal, 0.25 mg/kg): 230.244 and 106.329 and 212.382 | Triglycerides (Ave) (LDLr0 mice (second group), 1 Week Low Dose, T2 0.25 mg/kg daily oral, group average): 236.2 | Triglycerides (LDLr0 mice (second group), 1 Week Low Dose, T2 0.25 mg/kg daily oral, individual animal, 0.25 mg/kg): 183.413 and 260.001 and 239.273 and 268.082 and 244.895 and 177.441 and 263.163 and 252.975 | Triglycerides (Ave) (LDLr0 mice (second group), 2 Week High Dose (as headed), daily oral T2, group average): 356.5 | Triglycerides (LDLr0 mice (second group), 2 Week High Dose (as headed), daily oral T2, individual animal): 225.895 and 274.993 and 402.246 and 281.673 and 462.031 and 223.557 and 485.745 and 496.099 | Triglycerides (Ave) (LDLr+/− mice, 1 Week High Dose, T2 2.5 mg/kg daily oral, group average): 52.1 | Triglycerides (LDLr+/− mice, 1 Week High Dose, T2 2.5 mg/kg daily oral, individual animal, 2.5 mg/kg): 40.683 and 35.511 and 62.848 and 68.389 and 37.359 and 68.02 | Triglycerides (Ave) (LDLr+/− mice, 1 Week Low Dose, T2 0.25 mg/kg daily oral, group average): 31.4 | Triglycerides (LDLr+/− mice, 1 Week Low Dose, T2 0.25 mg/kg daily oral, individual animal, 0.25 mg/kg): 12.927 and 34.138 and 40.464 and 29.673 and 31.161 and 40.092 | effect on serum triglyceride levels (low and high dose T2, all genotypes): did not affect
